# Laboratory results taken from patent US20240115649A1, “CASPASE INHIBITION TO ENHANCE REGENERATION AND REPAIR AFTER SKIN OR GUT INJURY AND TO TREAT BACTERIAL OR VIRAL INFECTIONS” (The Johns Hopkins University, priority 2020, published 2024).
# How the values were obtained:
# [1] = system: monocytes, macrophages and neutrophils isolated from the infected skin; experiment: Flow cytometry of single-cell suspensions from CA-MRSA-infected skin; type: in vivo, mice
# Protocol: Flow cytometry. 10-mm skin punch biopsies were collected, minced and enzymatically digested in 3 mL RPMI containing 100 μg/mL DNaseI (Sigma-Aldrich) and 1.67 Wunsch U/ml Liberase TL (Roche) for 1 hour at 37° C. and shaken at 140 rpm. Single-cell suspensions were obtained after filtering the digested samples through a 40-μm cell filter using a 3 mL syringe plunger and cells were then washed in RPMI. […] The cells were further labeled for intracellular pMLKL, which was detected via anti-pMLKL mAb that was biotinylated with Biotin conjugation/Fast/Type A kit (Abcam), as per manufacturer's instructions, along with other intracellular mAbs against IL-1β and TNF (Supplemental Table S1). […] For immunophenotyping of Langerhans cells and monocyte-derived dendritic cells (DCs), cells were first gated on CD45^+ and then CD207^+CD103^− (Langerhans cells) and CD45^+CD11c^+CD115^+ monocyte-derived DCs (FIG. 11), modified from previously described methods (61). The absolute numbers of the respective cell populations were calculated as (Total number of live cells X [% of cell population/100]).
# [2] = biological target: T1, Staphopain B (sspB) (Staphylococcus aureus, UniProt P0C1S6); experiment: Protease activity assays and protein blot, Staphopain B; type: biochemical, S. aureus
# T1 construct: purchased CUSABIO
# T1 sequence (P0C1S6 220-393): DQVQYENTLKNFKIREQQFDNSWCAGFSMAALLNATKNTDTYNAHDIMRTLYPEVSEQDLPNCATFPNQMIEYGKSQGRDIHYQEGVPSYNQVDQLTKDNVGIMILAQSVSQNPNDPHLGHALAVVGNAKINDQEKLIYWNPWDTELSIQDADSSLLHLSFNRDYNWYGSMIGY
# [3] = system: S. pyogenes strain Xen20; type: cell-based; conditions: 10, 100 and 1,000 μg/mL; vs vehicle
# [4] = system: neutrophils; experiment: Flow cytometry of skin of Q-VD-OPh-treated mice; type: in vivo; conditions: Q-VD-OPh i.p.; unwounded skin; vs vehicle controls
# Protocol: Flow Cytometry. Cell suspensions were prepared by digesting mouse skin tissue in a cocktail consisting of Liberase TL (Roche, 5401020001), DNase I (Sigma, DN25) and antibiotics (Invitrogen, 15140) in RPMI 1640 (Gibco, 11875093). For FACS, cells were washed and first viability stained using the Zombie Aqua dye (BioLegend, 423101). […] Finally, cells were resuspended in BD stabilizing fixative prior to FACS. All flow cytometry experiments were performed on a BD LSR II and downstream analysis of data was performed using Cytobank.
# [5] = system: P. aeruginosa strain Xen41; experiment: P. aeruginosa skin infection model; type: in vivo; conditions: WT C57BL/6 mice; treatment at 4 hours; vs untreated
# [6] = system: ASC specks; experiment: ASC speck formation in ASC-Citrine mice (in vivo FLI, PuLSA assay)
# [7] = system: IL-1β; experiment: Serum IL-1β levels after S. aureus skin inoculation; type: in vivo, mice; conditions: days 1 and 3
# Protocol: Serum IL-1β and TNF levels. Serum IL-1β and TNF protein levels (pg/mL) were measured from serum collected on days 1 and 3 after S. aureus skin inoculation±Q-VD-OPH treatment using Bio-Plex protein assays and normalized to total protein, according to the manufacturer's recommendations (Bio-Rad).
# [8] = system: DSS treated C57BL/J6 mice; experiment: DSS-induced colitis model; type: in vivo
# Description: Histology. Biopsies from mouse colon and skin tissue were removed and fixed in 4% paraformaldehyde overnight and then transferred to 70% ethanol. Samples were then submitted to the Johns Hopkins Oncology Tissue Services Core facility where they were embedded in paraffin. Tissue sections were obtained at 4pin thickness and mounted onto glass slides, followed by hematoxylin and eosin (H&E) staining.
# Colitis Model. In order to induce colitis, adult wild-type, Rnasel -A , and Il36r^−/− mice were fed up to 4% (w/v) 36-50 kDa dextran sodium sulfate (DSS) (MP Biomedicals, 160110) in sterile water^37. Weight changes were monitored and recorded every day. For rescue experiments using the pan-caspase inhibitor Q-VD-OPh, mice were treated at the same concentrations as in WIHN experiments and were injected intraperitoneally during the day when noticeable weight loss began to occur (˜day 3-4). Mice were eventually sacrificed and colon lengths were extracted for gross examination and downstream FACS and protein analysis.
# [9] = system: S. aureus USA300 LAC::lux; experiment: Bacterial growth curve kinetics, S. aureus broth cultures; type: cell-based; conditions: 10, 100 and 1,000 μg/mL; 10 hours; vs vehicle
# [10] = biological target: Streptopain (speB) (Streptococcus pyogenes, UniProt P0C0J0); type: biochemical, S. pyogenes
# Sequence of Streptopain (speB) (P0C0J0 146-398 limits assumed): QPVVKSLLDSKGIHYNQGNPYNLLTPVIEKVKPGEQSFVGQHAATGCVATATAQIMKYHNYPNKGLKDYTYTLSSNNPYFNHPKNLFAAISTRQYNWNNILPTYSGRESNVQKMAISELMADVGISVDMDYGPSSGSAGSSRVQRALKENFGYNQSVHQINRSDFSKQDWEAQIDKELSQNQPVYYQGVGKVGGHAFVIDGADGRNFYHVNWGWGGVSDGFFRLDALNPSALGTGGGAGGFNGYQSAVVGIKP
# [11] = biological target: T2, Staphopain A (sspP) (Staphylococcus aureus, UniProt P81297); experiment: Protease activity assays and protein blot, Staphopain A; type: biochemical, S. aureus
# T2 construct: purchased CUSABIO
# T2 sequence (P81297 215-388): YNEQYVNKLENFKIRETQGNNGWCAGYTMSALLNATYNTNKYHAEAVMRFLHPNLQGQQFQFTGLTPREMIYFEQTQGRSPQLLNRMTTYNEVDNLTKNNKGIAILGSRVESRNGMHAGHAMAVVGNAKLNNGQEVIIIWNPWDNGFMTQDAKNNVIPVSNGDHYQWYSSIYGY
# [12] = system: neogenic hair follicles; experiment: Wound Induced Hair Neogenesis (WIHN) assay; type: in vivo, mice
# Protocol: Wound Induced Hair Neogenesis (WIHN) Assay. All in vivo experimental surgical procedures were performed as previously characterized ^1,2,6-8. In short, after exposure to vaporizing anesthesia (Baxter, Isoflurane) the dorsal side of male and female 3-week-old (21 days) mice were shaved at approximately 8-10 g of weight. Using surgical scissors, approximately 1.26 cm^2×1.25 cm^2 of skin was excised creating wounds deep into the fascia. At 3 days post-wounding, a single dose (50 μl) of 100 μg/mL high molecular weight (HMW) polyinosinic-polycytidylic acid (Poly (I:C)) (Invivogen, tlrl-pic) was administered underneath the scab site via injection in both wild-type and transgenic mice as previously described^2,8. For functional experiments characterizing IL-36 on WIHN, a single dose (50 μl) of 1 μg/mL recombinant mouse IL-36α protein (R&D Systems, 7059-ML/CF) was injected underneath the scab site at 7 days post-wounding. For rescue experiments using the small molecule, broad spectrum pan-caspase inhibitor, 20 ul of 5 mg/mL Q-VD-OPh (in DMSO) was diluted 130 μL of phosphate-buffered saline (PBS) (1.33 mM final concentration) and injected intraperitoneally in mice 24 hours prior to wounding and approximately 10 days after wounding (scab detachment).
# Immunofluorescence, immunocytochemistry, and immunohistochemistry.
# [13] = Q-VD-OPH treated TNF^−/− mice, day 1
# [14] = Q-VD-OPH treated WT mice, day 1
# [15] = TNF^−/− mice, day 1, vs untreated
# [16] = WT mice, infected skin day 1, vs untreated
smiles,measurement,setting,value
"CC(C)[C@H](NC(=O)c1ccc2ccccc2n1)C(=O)N[C@@H](CC(=O)O)C(=O)COc1c(F)cccc1F [Q-VD-OPH, Quinoline-val-asp-difluorophenoxymethyl ketone]",pMLKL+ MFI,[1]; [13],540
same,"pMLKL+ total cells, absolute numbers",[1]; [13],1.5×10^4 cells
same,"pMLKL+ total cells, percentage",[1]; [13],15%
same,pMLKL+ MFI,[1]; [14],2250
same,"pMLKL+ total cells, absolute numbers",[1]; [14],1.0×10^5 cells
same,"pMLKL+ total cells, percentage",[1]; [14],81%
same,percentages and absolute number of macrophages,"[1]; TNF^−/− mice, day 1",statistically increased
same,percentages and absolute number of monocytes,"[1]; TNF^−/− mice, day 1, compared with Q-VD-OPH treated WT mice",no increase
same,"necroptosis (pMLKL+) total leukocytes: MFI, percentages and absolute numbers","[1]; TNF^−/− mice, day 1, vs TNF^−/− untreated",significantly greater
same,early apoptotic (Annexin V+) neutrophils,[1]; [15],significantly decreased
same,early apoptotic cells (Annexin V+) of total leukocytes,[1]; [15],significantly decreased
same,percentages and absolute number of neutrophils,"[1]; TNF^−/− mice, infected skin day 1, vs untreated or Q-VD-OPH treated WT mice",significantly reduced
same,intracellular pro-IL-1β: MFI and percentages of total leukocytes (CD45+pro-IL-1β+),"[1]; WT mice, day 1, especially macrophages and neutrophils but not monocytes",increased mean fluorescence intensity (MFI) and percentages of total leukocytes
same,TNF+ macrophages,"[1]; WT mice, day 1, vs untreated",significantly greater
same,TNF+ monocytes,"[1]; WT mice, day 1, vs untreated",significantly greater
same,TNF+ neutrophils,"[1]; WT mice, day 1, vs untreated",significantly greater
same,"TNF+ total leukocytes (CD45+TNF+): MFI, percentages and absolute number","[1]; WT mice, day 1, vs untreated",significantly greater
same,"early apoptotic (Annexin V+) monocytes, percentages and absolute numbers","[1]; WT mice, day 1, vs untreated",significantly decreased
same,"early apoptotic (Annexin V+) neutrophils, percentages and absolute numbers","[1]; WT mice, day 1, vs untreated",significantly decreased
same,"early apoptotic cells (Annexin V+) of total leukocytes, percentages and absolute numbers","[1]; WT mice, day 1, vs untreated",significantly decreased
same,necroptosis (pMLKL+) macrophages,"[1]; WT mice, day 1, vs untreated",significantly greater
same,"necroptosis (pMLKL+) total leukocytes: MFI, percentages and absolute numbers","[1]; WT mice, day 1, vs untreated",significantly greater
same,percentages and absolute numbers of neutrophils,[1]; [16],no differences
same,percentages of macrophages,[1]; [16],statistically increased
same,percentages of monocytes,[1]; [16],statistically increased
same,physical conformational changes or degradation of sspB (protein blot),[2]; 2 hours at 37° C.,did not induce any physical conformational changes or cause degradation
same,activity of sspB on gelatinase activity or elastin proteolysis,"[2]; Q-VD-OPH 10 μg/mL, 20 hours",did not affect the activity
same,in vitro absorbance and bioluminescence,[3],no differences in in vitro absorbance and bioluminescence
same,neutrophil levels in the skin,[4],higher neutrophil levels in the skin
same,bacterial burden (in vivo BLI),[5],modest but significantly decreased
same,skin lesion sizes,[5],modest but significantly decreased skin lesion sizes
same,in vivo ASC speck formation (in vivo FLI signals),"[6]; ASC-Citrine mice, 6 hours following Q-VD-OPH administration",virtually inhibited all in vivo ASC speck formation
same,percentage of total ASC-Citrine expression in live cells,"[6]; infected skin, day 1, treated vs untreated",not significantly different
same,percentage of cells with ASC-Specks (PuLSA assay),"[6]; infected skin, day 1, vs untreated",substantially reduced percentage of cells with ASC-Specks
same,serum levels of IL-1β,[7],decreased serum levels of IL-1β
same,gut shortening after DSS treatment,[8]; Il36r^−/− mice,does not rescue gut shortening
same,weight loss,"[8]; Il36r^−/− mice, DSS",does not rescue weight loss
same,IL-36α expression in the gut,[8]; WT mice,Increased IL-36α expression
same,neutrophil abundance in the blood or the gut,"[8]; regenerative phase following cessation of DSS, vs controls",no change in neutrophil abundance
same,DSS-induced weight loss,"[8]; wild-type mice, 4% DSS, Q-VD-OPh i.p. 1.33 mM, vs control",protected from DSS-induced weight loss
same,colon length and morphology,"[8]; wild-type mice, 4% DSS, Q-VD-OPh i.p., vs control",longer and better colon morphology
same,"in vitro absorbance, bioluminescence and CFU (direct antibacterial activity)",[9],"no differences in in vitro absorbance, bioluminescence and CFU"
same,physical conformational changes or degradation of speB (protein blot),[10]; 2 hours at 37° C.,did not induce any physical conformational changes or cause degradation
same,activity of speB on gelatinase activity or elastin proteolysis,[10]; 20 hours,did not affect the activity
same,physical conformational changes or degradation of sspP (protein blot),[11]; 2 hours at 37° C.,did not induce any physical conformational changes or cause degradation
same,activity of sspP on gelatinase activity or elastin proteolysis,"[11]; Q-VD-OPH 10 μg/mL, 20 hours",did not affect the activity
same,WIHN,[12]; Il36r^−/− mice treated with Q-VD-OPh,do not
same,WIHN,"[12]; wild-type mice, Q-VD-OPh 1.33 mM i.p. 24 hours prior to and ~10 days after wounding, vs vehicle",more WIHN
same,IL-36α in the epidermis of re-epithelialized wounds,"[12]; wild-type mice, Q-VD-OPh i.p., vs vehicle",higher levels of IL-36α in the epidermis of re-epithelialized wounds
